Test results taken from ChEMBL document CHEMBL5390264, “Exploring Fatty Acid Mimetics as NR4A Ligands” (J Med Chem, 2023).
The source made the active and inactive calls. No cut-off for these calls is given here.

What was measured:
[1] = Selectivity ratio for agonist activity at PPARalpha LBD (unknown origin) transiently transfected in HEK293T cells to agonist activity at human Nur77 LBD transiently transfected in HEK293T cells; type: cell-based
[2] = Selectivity ratio for agonist activity at RXRalpha LBD (unknown origin) transiently transfected in HEK293T cells to agonist activity at human Nurr1 LBD transiently transfected in HEK293T cells; type: cell-based
[3] = Selectivity ratio for agonist activity at PPARalpha LBD (unknown origin) transiently transfected in HEK293T cells to agonist activity at human NOR-1 LBD transiently transfected in HEK293T cells; type: cell-based
[4] = target: T1, Nuclear receptor subfamily 4 group A member 2 (Homo sapiens, UniProt P43354); assay: Agonist activity at human Nurr1 LBD transiently transfected in HEK293T cells incubated for 16 hrs by Gal4-hybrid reporter gene based Dual-glo luciferase assay; type: cell-based; conditions: read-out: EC50
T1 sequence (P43354 whole entry, the tested form may be a part): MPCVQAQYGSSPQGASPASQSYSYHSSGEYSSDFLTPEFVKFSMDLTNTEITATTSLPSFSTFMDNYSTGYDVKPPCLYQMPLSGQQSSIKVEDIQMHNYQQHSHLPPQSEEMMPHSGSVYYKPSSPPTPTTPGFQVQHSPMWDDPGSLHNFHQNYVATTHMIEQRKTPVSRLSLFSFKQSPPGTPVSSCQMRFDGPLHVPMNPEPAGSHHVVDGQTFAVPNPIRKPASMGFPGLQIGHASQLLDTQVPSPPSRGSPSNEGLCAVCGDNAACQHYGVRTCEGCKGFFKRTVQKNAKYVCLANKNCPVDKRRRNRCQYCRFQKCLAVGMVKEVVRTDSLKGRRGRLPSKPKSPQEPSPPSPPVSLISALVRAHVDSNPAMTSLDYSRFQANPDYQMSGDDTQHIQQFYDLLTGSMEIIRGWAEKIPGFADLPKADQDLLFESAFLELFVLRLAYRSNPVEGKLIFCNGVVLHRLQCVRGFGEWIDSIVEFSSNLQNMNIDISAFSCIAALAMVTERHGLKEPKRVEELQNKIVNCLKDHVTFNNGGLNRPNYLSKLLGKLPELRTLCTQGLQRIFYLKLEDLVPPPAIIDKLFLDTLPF

[5] = Selectivity ratio for agonist activity at RARalpha LBD (unknown origin) transiently transfected in HEK293T cells to agonist activity at human Nur77 LBD transiently transfected in HEK293T cells; type: cell-based
[6] = Selectivity ratio for agonist activity at THRalpha LBD (unknown origin) transiently transfected in HEK293T cells to agonist activity at human NOR-1 LBD transiently transfected in HEK293T cells; type: cell-based
[7] = target: T1, Nuclear receptor subfamily 4 group A member 2; assay: Agonist activity at full length human Nurr1 transiently transfected in HEK293T cells co-transfected with pFR-Luc-NurRE incubated for 16 hrs by Gal4-hybrid reporter gene based Dual-glo luciferase assay; type: cell-based
[8] = Selectivity ratio for agonist activity at FXR LBD (unknown origin) transiently transfected in HEK293T cells to agonist activity at human NOR-1 LBD transiently transfected in HEK293T cells; type: cell-based
[9] = target: T2, Peroxisome proliferator-activated receptor alpha (Homo sapiens) (UniProt Q07869); assay: Agonist activity at PPARalpha LBD (unknown origin) transiently transfected in HEK293T cells at 1 uM incubated for 16 hrs by Gal4-hybrid reporter gene based Dual-glo luciferase assay; type: cell-based
T2 sequence (whole entry): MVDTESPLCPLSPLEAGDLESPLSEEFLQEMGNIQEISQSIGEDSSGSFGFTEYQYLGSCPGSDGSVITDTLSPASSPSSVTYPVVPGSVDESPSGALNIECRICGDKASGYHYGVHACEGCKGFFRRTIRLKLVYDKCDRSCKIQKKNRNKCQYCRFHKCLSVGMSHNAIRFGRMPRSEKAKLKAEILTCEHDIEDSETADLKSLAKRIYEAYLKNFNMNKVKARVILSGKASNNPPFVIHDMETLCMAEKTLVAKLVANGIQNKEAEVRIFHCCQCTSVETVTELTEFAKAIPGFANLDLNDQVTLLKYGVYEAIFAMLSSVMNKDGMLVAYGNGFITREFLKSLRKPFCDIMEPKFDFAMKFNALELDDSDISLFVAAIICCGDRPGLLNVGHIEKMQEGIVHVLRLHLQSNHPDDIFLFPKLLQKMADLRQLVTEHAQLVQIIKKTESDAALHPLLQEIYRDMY

[10] = Selectivity ratio for agonist activity at PPARgamma LBD (unknown origin) transiently transfected in HEK293T cells to agonist activity at human Nur77 LBD transiently transfected in HEK293T cells; type: cell-based
[11] = Selectivity ratio for agonist activity at THRalpha LBD (unknown origin) transiently transfected in HEK293T cells to agonist activity at human Nurr1 LBD transiently transfected in HEK293T cells; type: cell-based
[12] = target: T3, Retinoic acid receptor RXR-alpha (Homo sapiens) (UniProt P19793); assay: Agonist activity at human full length RXRalpha transiently transfected in HEK293T cells at 1 uM incubated for 16 hrs by Gal4-hybrid reporter gene based Dual-glo luciferase assay; type: cell-based
T3 sequence (whole entry): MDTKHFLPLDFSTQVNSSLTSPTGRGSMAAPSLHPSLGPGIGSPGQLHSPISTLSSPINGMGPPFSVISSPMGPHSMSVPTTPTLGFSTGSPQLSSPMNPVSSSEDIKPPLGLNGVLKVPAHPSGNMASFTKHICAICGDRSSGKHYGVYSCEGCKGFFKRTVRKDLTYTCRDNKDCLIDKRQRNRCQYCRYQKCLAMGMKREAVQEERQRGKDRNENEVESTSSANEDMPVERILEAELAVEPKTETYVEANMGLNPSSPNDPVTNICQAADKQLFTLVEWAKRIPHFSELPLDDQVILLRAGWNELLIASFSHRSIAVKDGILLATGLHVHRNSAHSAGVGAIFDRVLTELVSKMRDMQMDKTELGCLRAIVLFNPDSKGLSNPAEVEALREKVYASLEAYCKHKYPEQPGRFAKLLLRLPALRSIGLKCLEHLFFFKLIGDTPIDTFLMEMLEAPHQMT

[13] = target: T1, Nuclear receptor subfamily 4 group A member 2; conditions: filed as agonist, dose 100.0 µM
[14] = target: Nuclear receptor subfamily 4 group A member 3 (Homo sapiens, UniProt Q92570); assay: Agonist activity at human NOR-1 LBD transiently transfected in HEK293T cells incubated for 16 hrs by Gal4-hybrid reporter gene based Dual-glo luciferase assay; type: cell-based
Nuclear receptor subfamily 4 group A member 3, sequence (Q92570 whole entry, the tested form may be a part): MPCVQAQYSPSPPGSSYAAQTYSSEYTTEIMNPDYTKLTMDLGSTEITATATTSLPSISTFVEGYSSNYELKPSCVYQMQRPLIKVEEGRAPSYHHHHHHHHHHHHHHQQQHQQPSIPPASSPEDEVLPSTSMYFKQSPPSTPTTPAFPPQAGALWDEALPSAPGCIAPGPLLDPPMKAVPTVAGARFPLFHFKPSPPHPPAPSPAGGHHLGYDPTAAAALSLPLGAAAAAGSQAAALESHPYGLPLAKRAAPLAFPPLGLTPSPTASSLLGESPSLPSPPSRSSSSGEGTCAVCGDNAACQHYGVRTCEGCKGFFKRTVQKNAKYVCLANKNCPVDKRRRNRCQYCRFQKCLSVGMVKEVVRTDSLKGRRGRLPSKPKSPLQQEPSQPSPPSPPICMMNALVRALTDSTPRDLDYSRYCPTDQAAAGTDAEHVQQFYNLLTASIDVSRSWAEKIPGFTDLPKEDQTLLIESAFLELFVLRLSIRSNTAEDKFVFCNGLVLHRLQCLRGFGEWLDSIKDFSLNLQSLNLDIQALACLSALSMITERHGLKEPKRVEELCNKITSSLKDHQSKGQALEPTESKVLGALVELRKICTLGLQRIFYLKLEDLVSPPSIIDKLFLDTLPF

[15] = Selectivity ratio for agonist activity at RXRalpha LBD (unknown origin) transiently transfected in HEK293T cells to agonist activity at human NOR-1 LBD transiently transfected in HEK293T cells; type: cell-based
[16] = Selectivity ratio for agonist activity at PPARalpha LBD (unknown origin) transiently transfected in HEK293T cells to agonist activity at human Nurr1 LBD transiently transfected in HEK293T cells; type: cell-based
[17] = Selectivity ratio for agonist activity at RXRalpha LBD (unknown origin) transiently transfected in HEK293T cells to agonist activity at human Nur77 LBD transiently transfected in HEK293T cells; type: cell-based
[18] = target: T1, Nuclear receptor subfamily 4 group A member 2; assay: Agonist activity at full length human Nurr1 transiently transfected in HEK293T cells co-transfected with pFR-Luc-DR5 incubated for 16 hrs by Gal4-hybrid reporter gene based Dual-glo luciferase assay; type: cell-based
[19] = target: T1, Nuclear receptor subfamily 4 group A member 2; conditions: filed as agonist, dose 100.0 µM; remark: listed apart in the source
[20] = Selectivity ratio for agonist activity at VDR LBD (unknown origin) transiently transfected in HEK293T cells to agonist activity at human Nur77 LBD transiently transfected in HEK293T cells; type: cell-based

## CC(C)(C)c1ccc(COc2cccc(C(=O)O)c2)cc1
[1]
  Selectivity ratio: > 30
[2]
  Selectivity ratio: > 30
[3]
  Selectivity ratio: > 30
[4]
  EC50: 0.12 µM
[5]
  Selectivity ratio: > 30
[6]
  Selectivity ratio: > 30
[7]
  EC50: 0.01 µM
[8]
  Selectivity ratio: > 30
[9]
  Activity: inactive
[10]
  Selectivity ratio: > 30
[11]
  Selectivity ratio: > 30
[12]
  Activity: inactive
[13]
  -TdeltaS: -5.2 kcal/mol
[14]
  EC50: 0.07 µM
[15]
  Selectivity ratio: > 30
[16]
  Selectivity ratio: > 30
[17]
  Selectivity ratio: > 30
[18]
  EC50: 0.012 µM
[19]
  deltaH: -4 kcal/mol
[20]
  Selectivity ratio: > 30
